For series [1], the system named is dexamethasone-treated mice. The method, then:
It was also further examined whether an osteocalcin treatment might preserve muscle function and/or muscle mass in a clinically relevant mouse model of sarcopenia.
In another recognized model of sarcopenia, the efficacy of osteocalcin has been tested. Specifically, dexamethasone delivered by pumps ([…]) for 28 days has been used in mice. Another group of mice received Dexamethasone plus osteocalcin also delivered by pumps.
FIG. 9A and FIG. 9B show exemplary graphs pf exemplary modeling sarcopenia in mice.

For series [2], the system named is young and 12 to 15 month-old mice. The following applies: data of WO 2016/081728, cited from earlier work.
A further series concerns animal models. The following applies: in vivo.
The test system of another series is Liver Factor 1. Briefly: Liver Factor 1 production during exercise. In kind it is in vivo. The source says:
OCN signaling in the liver is required for exercise capacity (see FIG. 6). OCN enhances Liver Factor 1 production during exercise (see FIG. 7). Liver Factor 1 mediates OCN regulation of exercise capacity (see FIG. 8).

Setting [3] is: dexamethasone-treated mice, co-treatment with test substance.
Setting [4] is: one-month chronic infusion of dexamethasone, mice.

Entries after “also recorded” stand apart in the source; their conditions may differ. Read-outs that look alike come from different tables or passages of the source.

Regarding `N#Cc1ccc(N2CCC[C@@H]2[C@@H](O)C(F)(F)F)cc1C(F)(F)F` [VK5211, reference compound], in series [1] (setting [3]), the muscle mass result is reported as “fully restored muscle mass to normal levels” and the “running capacity / exercise capacity” value was “modest effect”.

Regarding `C[C@@H]1C[C@H]2[C@@H]3CCC4=CC(=O)C=C[C@]4(C)[C@@]3(F)[C@@H](O)C[C@]2(C)[C@@]1(O)C(=O)CO` [dexamethasone, reference compound], in series [1] (mouse, in vivo), the “ability to run on a treadmill” value is “decreased” and the muscle mass entry is listed as “decreased”. Besides, in series [1] (setting [4]), the “decrease of gastrocnemius muscle mass” value came to 30% and the “reduction of running capacity” value is reported as 50%.

In the case of “osteocalcin: Osteocalcin, a bone-derived hormone; small (46-50 amino acid residues) bone specific protein (YLYQWLGAPVPYPDPLEPRREVCELNPDCDELADHIGFQEAYRR; listed as Homo sapiens)”, in series [1] (Dex-induced sarcopenia), the IL-6 entry is reported as “favors IL-6”. The “muscle function versus muscle mass; comparison with VK5211” value in series [1] (Dex-induced sarcopenia) is “outperforms”; in series [1] (Dex-induced sarcopenia, listed as OCN) it was “mainly targets muscle function”. Besides, the muscle mass entry in series [1] (dexamethasone-treated mice, co-treatment with test substance, listed as OCN) is “marginal effect”. Also, in series [1] (mouse, in vivo), the off-target effects result is “no overt off-target effects”. For the same compound, the “deleterious effect of dexamethasone on muscle function” value in series [1] (osteocalcin given to mice that had already received dexamethasone for two weeks) is “partially revert”. For the same compound, the figures for the exercise capacity result in series [2] (12 to 15 month-old mice) and in series [2] (young mice) were “confers to 15 months-old mice exercise capacity of 3 month-old mice; also recorded: confers to 12 to 15 month-old mice the exercise capacity of 3 month-old mice” and “increases the exercise capacity”, respectively. Moreover, the negative side-effects result in the series on animal models is “safe with no recorded negative side-effects”. The “Liver Factor 1 production” value in the series on Liver Factor 1 is on record as “enhances”.
